One data set has as its target T1, TbPTR1 (Trypanosoma brucei brucei, UniProt O76290).
T1 construct: made in house
T1 sequence (O76290 1-268): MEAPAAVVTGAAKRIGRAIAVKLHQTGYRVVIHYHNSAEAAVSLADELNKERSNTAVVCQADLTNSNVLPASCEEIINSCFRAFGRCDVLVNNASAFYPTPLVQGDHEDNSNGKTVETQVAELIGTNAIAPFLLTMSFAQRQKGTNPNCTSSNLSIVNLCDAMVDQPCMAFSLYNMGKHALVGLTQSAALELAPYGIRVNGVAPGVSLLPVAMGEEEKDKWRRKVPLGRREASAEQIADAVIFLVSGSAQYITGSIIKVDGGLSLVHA
Kind of data set: biochemical. The following applies: for inhibition at 50 µM: 50 μM compound, read-out: % Inhibition TbPTR1 at 50 μM.

Data set [1] has as its system T. b. brucei Lister 427 bloodstream forms. Kind of data set: In vitro activity against T. brucei (HTS SYBR Green I growth inhibition assay). It counts as cell-based, Trypanosoma brucei brucei. To be noted: Trypanosoma brucei, standard deviation within ±10% of the value; for inhibition at 50 µM: read-out: % Inhibition T. brucei at 50 μM.
Another data set addresses T2, hERG (Homo sapiens, UniProt Q12809).
T2 construct: gene KCNH2
Details: hERG inhibition liability assay.

For another data set, the target named is T3, CYP1A2 (Homo sapiens, UniProt P05177).
T3 sequence (P05177 1-516): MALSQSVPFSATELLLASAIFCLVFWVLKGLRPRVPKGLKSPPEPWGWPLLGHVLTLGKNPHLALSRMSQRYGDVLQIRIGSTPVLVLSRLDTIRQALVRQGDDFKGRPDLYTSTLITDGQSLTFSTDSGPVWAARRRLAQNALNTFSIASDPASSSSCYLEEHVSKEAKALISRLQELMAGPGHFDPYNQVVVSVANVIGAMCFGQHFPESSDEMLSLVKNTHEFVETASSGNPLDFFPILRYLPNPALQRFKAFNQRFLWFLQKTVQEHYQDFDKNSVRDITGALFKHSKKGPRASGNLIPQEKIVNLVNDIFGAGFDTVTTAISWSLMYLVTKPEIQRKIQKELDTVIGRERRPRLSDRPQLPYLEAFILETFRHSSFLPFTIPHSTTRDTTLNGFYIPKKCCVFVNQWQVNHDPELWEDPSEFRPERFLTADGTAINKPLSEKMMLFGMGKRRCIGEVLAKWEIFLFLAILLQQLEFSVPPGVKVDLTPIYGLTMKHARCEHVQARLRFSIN
Kind of data set: in vitro. Details: cytochrome P450 isoform inhibition liability assay.

Another data set addresses CYP2C19 (Homo sapiens, UniProt P33261). Kind of data set: in vitro. Further details: cytochrome P450 isoform inhibition liability assay.
Another data set concerns the target CYP2C9 (Homo sapiens, UniProt P11712). As to the kind of experiment: in vitro. Details: cytochrome P450 isoform inhibition liability assay.
A further data set concerns the target CYP2D6 (Homo sapiens, UniProt P10635). Kind of data set: in vitro. Details: cytochrome P450 isoform inhibition liability assay.
The next data set addresses CYP3A4 (Homo sapiens, UniProt P08684). As to the kind of experiment: in vitro. Details: cytochrome P450 isoform inhibition liability assay.
A further data set concerns the target T4, hDHFR (Homo sapiens, UniProt P00374).
T4 construct: gene DHFR
T4 sequence (P00374 1-187): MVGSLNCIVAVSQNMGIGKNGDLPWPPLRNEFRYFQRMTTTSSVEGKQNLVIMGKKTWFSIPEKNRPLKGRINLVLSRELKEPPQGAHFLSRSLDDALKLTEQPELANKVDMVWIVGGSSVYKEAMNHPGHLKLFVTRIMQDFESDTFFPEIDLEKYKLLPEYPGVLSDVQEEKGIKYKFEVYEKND
As to the kind of experiment: biochemical. Details: human DHFR enzyme inhibition. How it is done:
Figure 10 Summary heat map of the in vitro assays to determine possible liability issues for all synthesized compounds. Assays were performed to assess inhibition of hERG and five CYP isoforms (1A2, 2C9, 2C19, 2D6, and 3A4), growth inhibition of A549 and W1-38 cell lines, and mitochondrial toxicity at 10 μM. The hDHFR inhibition was determined at 100 μM. The data, expressed as percentage values, were organized by adopting a color code for rapid and intuitive visualization. The ideal compound should have all tiles blue, indicating a safe toxicological profile for progressing into the development pipeline. The cells are colored from blue (100% of cell growth at the tested concentration) to red (0% of cell growth at the tested concentration) for A549 and W1-38 and from blue (0% of inhibitory activity at the tested concentration) to red (100% of inhibitory activity at the tested concentration) for CYP isoforms, hERG, hDHFR, and mitochondrial toxicity.

Another data set has as its system 786-O. As to the kind of experiment: cells. Details: mitochondrial toxicity in 786-O renal carcinoma cells. To be noted: Homo sapiens, 786-0; mitochondrial toxicity.
Data set [2] is described as follows: in vitro. To be noted: human, a549 cells; read-out: % cell growth A549 at 10uM. Details: cytotoxicity, per cent cell growth of A549 cells.
Data set [3] is described as follows: in vitro. The following applies: human, wi-38 cells; read-out: % cell growth W1-38 at 10uM. Details: cytotoxicity, per cent cell growth of WI-38 fibroblasts.

Where two headings read alike, the source gives them in different places. Some results are limits rather than exact numbers.

We go through six compounds from paper PMC5623949, “Exploiting the 2-Amino-1,3,4-thiadiazole Scaffold To Inhibit Trypanosoma brucei Pteridine Reductase in Support of Early-Stage Drug Discovery” (ACS Omega, 2017).

CYP2C19, sequence (P33261 whole entry, canonical isoform): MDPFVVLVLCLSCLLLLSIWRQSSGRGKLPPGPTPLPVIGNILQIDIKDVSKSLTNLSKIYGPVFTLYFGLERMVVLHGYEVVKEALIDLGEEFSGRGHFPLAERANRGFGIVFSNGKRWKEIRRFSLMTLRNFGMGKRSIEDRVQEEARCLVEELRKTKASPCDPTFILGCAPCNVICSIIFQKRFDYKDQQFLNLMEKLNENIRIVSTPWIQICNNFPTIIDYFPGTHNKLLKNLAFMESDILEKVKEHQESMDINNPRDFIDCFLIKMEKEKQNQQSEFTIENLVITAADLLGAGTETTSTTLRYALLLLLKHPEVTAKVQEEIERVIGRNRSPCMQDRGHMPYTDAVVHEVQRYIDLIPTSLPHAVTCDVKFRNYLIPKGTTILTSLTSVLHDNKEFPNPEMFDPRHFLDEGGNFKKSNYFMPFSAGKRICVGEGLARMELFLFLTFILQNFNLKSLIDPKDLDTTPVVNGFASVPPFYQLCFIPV
CYP2D6, sequence (P10635 whole entry, canonical isoform): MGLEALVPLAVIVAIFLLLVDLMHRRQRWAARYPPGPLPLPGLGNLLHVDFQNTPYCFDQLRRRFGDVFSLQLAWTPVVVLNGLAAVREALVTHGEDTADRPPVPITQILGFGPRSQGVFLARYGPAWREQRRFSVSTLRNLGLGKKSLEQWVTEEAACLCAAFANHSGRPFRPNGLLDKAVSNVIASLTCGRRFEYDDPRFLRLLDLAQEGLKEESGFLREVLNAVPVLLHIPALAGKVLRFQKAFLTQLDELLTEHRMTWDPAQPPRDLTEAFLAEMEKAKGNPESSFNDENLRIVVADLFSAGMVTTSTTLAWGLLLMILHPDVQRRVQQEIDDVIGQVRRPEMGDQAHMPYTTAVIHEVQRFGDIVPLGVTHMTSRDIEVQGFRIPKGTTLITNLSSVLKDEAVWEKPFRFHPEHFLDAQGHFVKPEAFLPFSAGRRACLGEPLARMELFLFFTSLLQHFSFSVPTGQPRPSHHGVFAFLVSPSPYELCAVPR
CYP2C9, sequence (P11712 whole entry, canonical isoform): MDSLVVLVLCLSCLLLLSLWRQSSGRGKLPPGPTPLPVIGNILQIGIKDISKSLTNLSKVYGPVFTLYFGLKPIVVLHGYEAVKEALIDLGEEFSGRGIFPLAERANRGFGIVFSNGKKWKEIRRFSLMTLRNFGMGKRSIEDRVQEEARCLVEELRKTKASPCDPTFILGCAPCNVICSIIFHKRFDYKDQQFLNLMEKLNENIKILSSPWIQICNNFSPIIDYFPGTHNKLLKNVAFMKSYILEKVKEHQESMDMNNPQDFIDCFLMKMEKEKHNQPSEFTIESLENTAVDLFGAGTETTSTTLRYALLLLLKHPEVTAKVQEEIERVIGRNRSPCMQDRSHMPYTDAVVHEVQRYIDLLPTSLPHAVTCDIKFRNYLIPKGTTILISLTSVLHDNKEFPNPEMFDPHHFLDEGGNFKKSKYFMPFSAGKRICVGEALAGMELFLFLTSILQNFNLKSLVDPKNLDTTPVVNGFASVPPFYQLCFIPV
CYP3A4, sequence (P08684 whole entry, canonical isoform): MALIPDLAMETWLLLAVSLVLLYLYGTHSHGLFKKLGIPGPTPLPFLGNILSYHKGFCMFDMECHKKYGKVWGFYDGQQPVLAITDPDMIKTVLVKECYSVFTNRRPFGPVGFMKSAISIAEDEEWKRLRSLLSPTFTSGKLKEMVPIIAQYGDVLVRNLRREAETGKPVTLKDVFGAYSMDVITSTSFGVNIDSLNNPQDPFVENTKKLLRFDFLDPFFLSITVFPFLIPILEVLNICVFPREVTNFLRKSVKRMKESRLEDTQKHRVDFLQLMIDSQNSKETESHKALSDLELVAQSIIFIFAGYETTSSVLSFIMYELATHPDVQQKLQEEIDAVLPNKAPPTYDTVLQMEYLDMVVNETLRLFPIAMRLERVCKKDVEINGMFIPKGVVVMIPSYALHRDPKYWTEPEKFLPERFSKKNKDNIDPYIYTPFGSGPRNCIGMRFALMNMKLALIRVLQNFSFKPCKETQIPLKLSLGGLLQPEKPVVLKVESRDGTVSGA
T2 sequence (Q12809 whole entry): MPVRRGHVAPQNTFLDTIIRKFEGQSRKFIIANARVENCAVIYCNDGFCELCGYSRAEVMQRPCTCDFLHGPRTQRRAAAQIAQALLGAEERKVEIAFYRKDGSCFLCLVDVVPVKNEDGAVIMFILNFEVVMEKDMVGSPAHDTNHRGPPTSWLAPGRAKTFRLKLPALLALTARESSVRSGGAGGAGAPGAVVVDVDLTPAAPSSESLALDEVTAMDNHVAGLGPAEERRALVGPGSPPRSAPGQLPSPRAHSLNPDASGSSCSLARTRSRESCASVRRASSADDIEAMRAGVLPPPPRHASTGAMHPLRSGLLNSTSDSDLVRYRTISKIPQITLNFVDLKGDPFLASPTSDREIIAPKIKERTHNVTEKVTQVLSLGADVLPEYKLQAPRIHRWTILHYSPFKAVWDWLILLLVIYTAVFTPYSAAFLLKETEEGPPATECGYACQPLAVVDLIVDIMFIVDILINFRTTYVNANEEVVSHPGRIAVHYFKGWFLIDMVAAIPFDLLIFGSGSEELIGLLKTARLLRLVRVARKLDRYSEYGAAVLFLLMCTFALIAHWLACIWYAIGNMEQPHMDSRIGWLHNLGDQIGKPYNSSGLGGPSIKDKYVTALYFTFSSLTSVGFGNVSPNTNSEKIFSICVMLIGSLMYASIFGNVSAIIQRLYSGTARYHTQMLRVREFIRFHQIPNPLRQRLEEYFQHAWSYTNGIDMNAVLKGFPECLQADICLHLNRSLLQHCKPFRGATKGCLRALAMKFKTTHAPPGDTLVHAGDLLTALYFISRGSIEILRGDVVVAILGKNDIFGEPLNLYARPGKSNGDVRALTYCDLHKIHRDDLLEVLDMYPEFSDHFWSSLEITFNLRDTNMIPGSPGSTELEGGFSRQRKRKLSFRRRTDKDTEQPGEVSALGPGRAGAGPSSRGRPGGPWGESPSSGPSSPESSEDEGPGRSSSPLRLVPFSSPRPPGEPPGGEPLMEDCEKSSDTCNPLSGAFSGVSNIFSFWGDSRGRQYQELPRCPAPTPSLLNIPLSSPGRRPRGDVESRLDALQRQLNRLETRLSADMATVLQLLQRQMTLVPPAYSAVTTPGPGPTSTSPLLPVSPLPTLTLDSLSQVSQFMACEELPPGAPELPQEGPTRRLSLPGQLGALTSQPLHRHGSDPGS

One may read the inhibition as the drop in the measured response relative to a control, in per cent. In general, EC50 refers to the concentration giving half of the maximal effect. `Nc1nnc(/C=C/c2ccccc2)s1` [3h]: the inhibition at 50 µM on TbPTR1 was 34.3 ± 1.2%; in [1] it was 82.7%. The half-maximal effective concentration (EC50) in data set [1] (read-out: EC50 T. brucei) came out at 58 µM. Further, the inhibition at 10 µM on hERG was 58.7 ± 4.9%; at CYP1A2, 25.2 ± 1.1%; at CYP2C19 it was 7.2 ± 9.8%; at CYP2C9, 4.1 ± 5.9%; at CYP2D6, -22.1 ± 8%; at CYP3A4 it was 45.9 ± 5.5%. The inhibition at 10 µM at hDHFR is 15%; in the data set with 786-O it was -1.3 ± 6.6%. Further, the figures for the viability at 10 µM in the data set “in vitro [2]” and in “in vitro [3]” were 138 ± 5.6% and 111 ± 42%, respectively.

Take `COc1ccc(-c2ccc(-c3nnc(N)s3)nc2)cc1` [1t]: the inhibition at 50 µM stood at 8.3 ± 1.8% on TbPTR1 and 28.9% in data set [1]. For the same compound, the inhibition at 10 µM on hERG stood at 59.5 ± 42.9%; on CYP1A2, 76.4 ± 1.2%; on CYP2C19 it was 17 ± 5.7%; at CYP2C9, 19.7 ± 8.9%; on CYP2D6, 8.9 ± 2.4%; on CYP3A4, 8.5 ± 3.3%. Also, the inhibition at 10 µM against hDHFR came out at 8%; in the data set on 786-O, 6.7 ± 17.3%. Moreover, the viability at 10 µM was 60.7 ± 5.9% in “in vitro [2]” and 107 ± 10.4% in “in vitro [3]”.

Regarding `Nc1nnc(-c2ccc(-c3nnc(N)s3)c(N)c2)s1` [1o], the inhibition at 50 µM on TbPTR1 stood at 23.4 ± 0.1%; in [1], 1.6%. Besides, the inhibition at 10 µM on hERG is -1.9 ± 4.9%; at CYP1A2, 9.5 ± 4.2%; at CYP2C19, -28.3 ± 16%; on CYP2C9 it was -4.2 ± 4.2%; on CYP2D6, -38 ± 5.7%; at CYP3A4, -0.7 ± 4.4%. The inhibition at 10 µM against hDHFR was 12%; with 786-O, -6.1 ± 4.3%. In addition, the viability at 10 µM in “in vitro [2]” was 118 ± 9.4%; in the data set “in vitro [3]”, 103 ± 1.8%.

A word on the IC50: it is the concentration that gives 50% inhibition. A lower IC50 goes with higher potency. As to `Nc1nnc(NCc2ccc(C(F)(F)F)cc2)s1` [4f], the inhibition at 50 µM was 37.7 ± 0.5% on TbPTR1 and less than 0% in data set [1]. This compound yielded an IC50 against TbPTR1 (dose-response 0.001-100 μM) of 48 µM. Also, the inhibition at 10 µM came to 69.9 ± 2.3% on hERG; 24.6 ± 2.5% at CYP1A2; 11.9 ± 6.6% on CYP2C19; 19.5 ± 1.3% on CYP2C9; 72.4 ± 3.8% at CYP2D6; 7.8 ± 9.8% on CYP3A4. The inhibition at 10 µM with 786-O is 9.6 ± 12.5%. Moreover, the inhibition at 100 µM against hDHFR worked out at 19%. Further, the viability at 10 µM in “in vitro [2]” was determined as 113 ± 4.8%; in “in vitro [3]”, 80.9 ± 23.6%.

As to `COc1ccc(-c2nnc(N)s2)cc1OC` [1c], the inhibition at 50 µM at TbPTR1 came to 9.4 ± 0.3%; in data set [1] it was 64.3%. Further, the inhibition at 10 µM was 13.6 ± 4% at hERG; 14.1 ± 3.4% on CYP1A2; -26.1 ± 22.5% on CYP2C19; -25.9 ± 1.5% on CYP2C9; -45.9 ± 3.1% at CYP2D6; -7.1 ± 6% on CYP3A4. Besides, the inhibition at 10 µM in the data set with 786-O is -7.3 ± 5.2%. Moreover, the inhibition at 100 µM against hDHFR stood at 42%. Besides, the viability at 10 µM in the data set “in vitro [2]” was 105 ± 5.3%; in the data set “in vitro [3]”, 110 ± 33.5%.

As for `Nc1nnc(-c2ccc(OCc3ccc(Cl)c(Cl)c3)cc2)s1` [1r], the inhibition at 50 µM on TbPTR1 is less than 0%; in data set [1], 58.4%. The inhibition at 10 µM amounted to 40.7 ± 7.5% on hERG; 24.7 ± 1.4% at CYP1A2; 69.6 ± 5.2% on CYP2C19; 31.3 ± 0.4% on CYP2C9; 48 ± 0.9% on CYP2D6; 14.9 ± 5.7% on CYP3A4. The inhibition at 10 µM with 786-O came out at 4.7 ± 7.8%. Further, the inhibition at 100 µM on hDHFR is 17%. Moreover, the viability at 10 µM in the data set “in vitro [2]” is 104 ± 6.6%; in the data set “in vitro [3]” it was 68.7 ± 17.9%.
